Measurements: US20260176289A1, “SMALL MOLECULE INHIBITORS OF KRAS PROTEINS” (Merck Sharp & Dohme LLC, priority 2022, published 2026)
Read-outs that look alike come from different tables or passages of the source.

Experiments:
KRAS-WT = KRAS-WT (Homo sapiens, UniProt P01116); assay: SOS-catalyzed nucleotide exchange assay (Procedure A, TR-FRET), KRAS-WT; assay type: biochemical
Procedure, shortened: (§1)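 Inhibitors stabilizing the Bodipy-GDP state are detected as retained TR-FRET from a preformed biotinylated RAS/Tb-streptavidin complex. They are preincubated 60 min at room temperature, then human SOS and 3 mM GTP are added. G12V runs 90 min at 1.25 nM RAS/160 nM SOS. G12C (3 nM), WT (1 nM) and NRAS (1.25 nM) run 60 min with 40 nM SOS.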

KRAS-G12D = KRAS-G12D (Homo sapiens, UniProt P01116, G12D); assay: SOS-catalyzed nucleotide exchange assay (Procedure A, TR-FRET), KRAS-G12D; assay type: biochemical
Sequence of KRAS-G12D (P01116 with tags, fused parts or gaps isoform P01116-2 G12D): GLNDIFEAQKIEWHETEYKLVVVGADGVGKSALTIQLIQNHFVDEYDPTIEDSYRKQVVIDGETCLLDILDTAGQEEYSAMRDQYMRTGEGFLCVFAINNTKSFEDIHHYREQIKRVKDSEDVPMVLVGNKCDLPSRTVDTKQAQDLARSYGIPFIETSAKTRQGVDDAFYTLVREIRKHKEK
Procedure, shortened: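 Signal ratio (520/495 nm, excitation 340 nm) reports Bodipy-GDP retention on biotinylated RAS after SOS-catalyzed exchange with 3 mM GTP. SOS was 40 nM, except 160 nM for G12V. Room-temperature exchange lasted 60 min (90 min for G12V), following a 60 min compound preincubation.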

KRAS-G12V = KRAS-G12V (Homo sapiens, UniProt P01116, G12V); assay: SOS-catalyzed nucleotide exchange assay (Procedure A, TR-FRET), KRAS-G12V; assay type: biochemical
Sequence of KRAS-G12V (P01116 with tags, fused parts or gaps isoform P01116-2 G12V): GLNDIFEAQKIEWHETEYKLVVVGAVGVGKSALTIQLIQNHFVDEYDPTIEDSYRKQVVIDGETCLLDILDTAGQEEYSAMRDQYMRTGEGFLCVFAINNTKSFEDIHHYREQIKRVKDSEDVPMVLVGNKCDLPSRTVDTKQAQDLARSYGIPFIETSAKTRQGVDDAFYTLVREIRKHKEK
Procedure, shortened: as §1

AsPC-1 cells = assay: Cellular phospho-ERK assay, AsPC-1 cells (homozygous KRAS-G12D); assay type: cell-based; conditions: Homo sapiens, read-out: AsPC1 pERK IC50
Procedure, shortened: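 p-ERK/total ERK ratio, measured by AlphaLISA SureFire Ultra multiplex in lysates, was fitted to a 4-parameter logistic model for IC50. Compound exposure was 2 h at 37° C, 5% CO2, 10-point 1:3 dilutions from 30 μM final, on cells plated the previous night.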

[1] = nucleotide exchange, read-out: KRAS WT GNE IC50
[2] = nucleotide exchange, read-out: KRAS G12D GNE IC50
[3] = nucleotide exchange, read-out: KRAS G12V GNE IC50
[4] = ASPC1, 2 h, 2 hours compound incubation

Sequence of KRAS-WT (P01116 with tags, fused parts or gaps isoform P01116-2): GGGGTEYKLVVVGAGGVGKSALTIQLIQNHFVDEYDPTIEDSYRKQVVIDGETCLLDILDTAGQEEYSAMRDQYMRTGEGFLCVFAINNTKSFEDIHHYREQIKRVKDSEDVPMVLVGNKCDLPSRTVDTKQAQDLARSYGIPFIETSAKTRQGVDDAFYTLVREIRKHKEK

## C[C@@]1(O)COCCN(c2nc(OC[C@]3(CN4CC5CC5C4)CC3(F)F)nc3sc4c(-c5c(C6(F)CC6)c(Cl)cc6[nH]ncc56)nccc4c23)C1 (stereo partly drawn) [Ex-237, (6S)-4-(2-(((1R)-1-((3-azabicyclo[3.1.0]hexan-3-yl)methyl)-2,2-difluorocyclopropyl)methoxy)-8-(6-chloro-5-(1-fluorocyclopropyl)-1H-indazol-4-yl)pyrido[4′,3′:4,5]thieno[2,3-d]pyrimidin-4-yl)-6-methyl-1,4-oxazepan-6-ol]
KRAS-WT; [1]
  IC50: 158 nM
KRAS-G12D; [2]
  IC50: 24.9 nM
KRAS-G12V; [3]
  IC50: 32.9 nM
AsPC-1 cells; [4]
  IC50: 293 nM

## C[C@@]1(O)COCCN(c2nc(OC[C@]3(CN4CC(C#N)C4)CC3(F)F)nc3sc4c(-c5c(C6(F)CC6)c(Cl)cc6[nH]ncc56)nccc4c23)C1 [Ex-238, 1-(((IR)-1-(((8-(6-chloro-5-(1-fluorocyclopropyl)-1H-indazol-4-yl)-4-((S)-6-hydroxy-6-methyl-1,4-oxazepan-4-yl)pyrido[4′,3′:4,5]thieno[2,3-d]pyrimidin-2-yl)oxy)methyl)-2,2-difluorocyclopropyl)methyl]a-zetidine-3-carbonitrile]
KRAS-WT; [1]
  IC50: 446 nM
KRAS-G12D; [2]
  IC50: 112 nM
KRAS-G12V; [3]
  IC50: 400 nM
AsPC-1 cells; [4]
  IC50: 4120 nM

## C[C@H]1CN(C[C@@]2(COc3nc(N4CCOC[C@@](C)(O)C4)c4c(n3)sc3c(-c5c(C6(F)CC6)c(Cl)cc6[nH]ncc56)nccc34)CC2(F)F)[C@@H](C)CO1 [Ex-241, (6S)-4-(8-(6-chloro-5-(1-fluorocyclopropyl)-1H-indazol-4-yl)-2-(((R)-1-(((2S,5S)-2,5-dimethylmorpholino)methyl)-2,2-difluorocyclopropyl)methoxy)pyrido[4′,3′:4,5]thieno[2,3-d]pyrimidin-4-yl)-6-methyl-1,4-oxazepan-6-ol]
KRAS-WT; [1]
  IC50: 1860 nM
KRAS-G12D; [2]
  IC50: 98.2 nM
KRAS-G12V; [3]
  IC50: 308 nM
AsPC-1 cells; [4]
  IC50: 1410 nM

## C[C@@]1(O)COCCN(c2nc(OC[C@]3(CN4[C@@H]5CC[C@H]4C[C@@H](F)C5)CC3(F)F)nc3sc4c(-c5c(C6(F)CC6)c(Cl)cc6[nH]ncc56)nccc4c23)C1 [Ex-242, (6S)-4-(8-(6-chloro-5-(1-fluorocyclopropyl)-1H-indazol-4-yl)-2-(((R)-2,2-difluoro-1-(((1R,3R,5S)-3-fluoro-8-azabicyclo[3.2.1]octan-8-yl)methyl)cyclopropyl)metho-xy)pyrido[4′,3′:4,5]thieno[2,3-d]pyrimidin-4-yl)-6-methyl-1,4-oxazepan-6-ol]
KRAS-WT; [1]
  IC50: 694 nM
KRAS-G12D; [2]
  IC50: 90.7 nM
KRAS-G12V; [3]
  IC50: 348 nM
AsPC-1 cells; [4]
  IC50: 1150 nM

## C[C@@H]1CN(C[C@@]2(COc3nc(N4CCOC[C@@](C)(O)C4)c4c(n3)sc3c(-c5c(C6(F)CC6)c(Cl)cc6[nH]ncc56)nccc34)CC2(F)F)CCO1 [Ex-243]
KRAS-WT; [1]
  IC50: 986 nM
KRAS-G12D; [2]
  IC50: 87.3 nM
KRAS-G12V; [3]
  IC50: 333 nM
AsPC-1 cells; [4]
  IC50: 943 nM

## C[C@H]1CN(C[C@@]2(COc3nc(N4CCOC[C@@](C)(O)C4)c4c(n3)sc3c(-c5c(C6(F)CC6)c(Cl)cc6[nH]ncc56)nccc34)CC2(F)F)CCO1 [Ex-244, (6S)-4-(8-(6-chloro-5-(1-fluorocyclopropyl)-1H-indazol-4-yl)-2-(((R)-2,2-difluoro-1-(((S)-2-methylmorpholino)methyl)cy-clopropyl)methoxy)pyrido[4′, 3′:4,5]thieno[2,3-d]pyrimidin-4-yl)-6-methyl-1,4-oxazepan-6-ol]
KRAS-WT; [1]
  IC50: 699 nM
KRAS-G12D; [2]
  IC50: 140 nM
KRAS-G12V; [3]
  IC50: 207 nM
AsPC-1 cells; [4]
  IC50: 711 nM

## C[C@@H]1CN(C[C@@]2(COc3nc(N4CCOC[C@@](C)(O)C4)c4c(n3)sc3c(-c5c(C6(F)CC6)c(Cl)cc6[nH]ncc56)nccc34)CC2(F)F)C[C@H](C)O1 [Ex-246, (6S)-4-(8-(6-chloro-5-(1-fluorocyclopropyl)-1H-indazol-4-yl)-2-(((R)-1-(((2R,6S)-2,6-dimethylmorpholino)methyl)-2,2-difluorocyclopropyl)methoxy)pyrido[4′,3′:4,5]thieno[2,3-d]pyrimidin-4-yl)-6-methyl-1,4-oxazepan-6-ol]
KRAS-WT; [1]
  IC50: 374 nM
KRAS-G12D; [2]
  IC50: 96.8 nM
KRAS-G12V; [3]
  IC50: 275 nM
AsPC-1 cells; [4]
  IC50: 1170 nM

## C[C@@]1(O)COCCN(c2nc(OC[C@]3(CN4CCC[C@H]4CF)CC3(F)F)nc3sc4c(-c5c(C6(F)CC6)c(Cl)cc6[nH]ncc56)nccc4c23)C1 [Ex-247, (6S)-4-(8-(6-chloro-5-(1-fluorocyclopropyl)-1H-indazol-4-yl)-2-(((R)-2,2-difluoro-1-(((S)-2-(fluoromethyl)pyrrolidin-1-yl)methyl)cyclopropyl)metho-xy)pyrido[4′,3′:4,5]thieno[2,3-d]pyrimidin-4-yl)-6-methyl-1,4-oxazepan-6-ol]
KRAS-WT; [1]
  IC50: 352 nM
KRAS-G12D; [2]
  IC50: 74.6 nM
KRAS-G12V; [3]
  IC50: 320 nM
AsPC-1 cells; [4]
  IC50: 977 nM

## C[C@@]1(O)COCCN(c2nc(OC[C@]3(CN4CC5(CC5)C4)CC3(F)F)nc3sc4c(-c5c(C6(F)CC6)c(Cl)cc6[nH]ncc56)nccc4c23)C1 [Ex-250, (6S)-4-(2-(((R)-1-((5-azaspiro[2.3]hexan-5-yl)methyl)-2,2-difluorocyclopropyl)methoxy)-8-(6-chloro-5-(1-fluorocyclopropyl)-1H-indazol-4-yl)pyrido[4′,3′:4,5]thieno[2,3-d]pyrimidin-4-yl)-6-methyl-1,4-oxazepan-6-ol]
KRAS-WT; [1]
  IC50: 36.2 nM
KRAS-G12D; [2]
  IC50: 8.56 nM
KRAS-G12V; [3]
  IC50: 18.6 nM
AsPC-1 cells; [4]
  IC50: 152 nM

## C[C@@]1(O)COCCN(c2nc(OC[C@]3(CN4[C@@H]5CC[C@H]4C[C@H](F)C5)CC3(F)F)nc3sc4c(-c5c(C6(F)CC6)c(Cl)cc6[nH]ncc56)nccc4c23)C1 [Ex-251, (6S)-4-(8-(6-chloro-5-(1-fluorocyclopropyl)-1H-indazol-4-yl)-2-(((R)-2,2-difluoro-1-(((1R,3S,5S)-3-fluoro-8-azabicyclo[3.2.1]octan-8-yl)methyl)cyclopropyl)metho-xy)pyrido[4′,3′:4,5]thieno[2,3-d]pyrimidin-4-yl)-6-methyl-1,4-oxazepan-6-ol]
KRAS-WT; [1]
  IC50: 489 nM
KRAS-G12D; [2]
  IC50: 53 nM
KRAS-G12V; [3]
  IC50: 110 nM
AsPC-1 cells; [4]
  IC50: 670 nM

## C[C@@]1(O)COCCN(c2nc(OC[C@]3(CN4C[C@@H]5CCCO[C@H]5C4)CC3(F)F)nc3sc4c(-c5c(C6(F)CC6)c(Cl)cc6[nH]ncc56)nccc4c23)C1 [Ex-252, (6S)-4-(8-(6-chloro-5-(1-fluorocyclopropyl)-1H-indazol-4-yl)-2-(((R)-2,2-difluoro-1-(((4aS,7aR)-hexahydropyrano[2,3-c]pyrrol-6(2H)-yl)methyl)cyclopropyl)methoxy)pyrido[4′,3′:4,5]thieno[2,3-d]pyrimidin-4-yl)-6-methyl-1,4-oxazepan-6-ol]
KRAS-WT; [1]
  IC50: 57.8 nM
KRAS-G12D; [2]
  IC50: 4.96 nM
KRAS-G12V; [3]
  IC50: 32.2 nM
AsPC-1 cells; [4]
  IC50: 232 nM

## C[C@@]1(O)COCCN(c2nc(OC[C@]3(CN4C[C@H]5CCO[C@H]5C4)CC3(F)F)nc3sc4c(-c5c(C6(F)CC6)c(Cl)cc6[nH]ncc56)nccc4c23)C1 [Ex-254, (6S)-4-(8-(6-chloro-5-(1-fluorocyclopropyl)-1H-indazol-4-yl)-2-(((R)-2,2-difluoro-1-(((3aR,6aR)-hexahydro-5H-furo[2,3-c]pyrrol-5-yl)methyl)cyclopropyl)metho-xy)pyrido[4′,3′:4,5]thieno[2,3-d]pyrimidin-4-yl)-6-methyl-1,4-oxazepan-6-ol]
KRAS-WT; [1]
  IC50: 59.7 nM
KRAS-G12D; [2]
  IC50: 6.96 nM
KRAS-G12V; [3]
  IC50: 91.9 nM
AsPC-1 cells; [4]
  IC50: 315 nM

## C[C@@]1(O)COCCN(c2nc(OC[C@]3(CN4CC5(CCC5)C4)CC3(F)F)nc3sc4c(-c5c(C6(F)CC6)c(Cl)cc6[nH]ncc56)nccc4c23)C1 [Ex-256, (6S)-4-(2-(((R)-1-((2-azaspiro[3.3]heptan-2-yl)methyl)-2,2-difluorocyclopropyl)methoxy)-8-(6-chloro-5-(1-fluorocyclopropyl)-1H-indazol-4-yl)pyrido[4′,3′:4,5]thieno[2,3-d]pyrimidin-4-yl)-6-methyl-1,4-oxazepam-6-ol]
KRAS-WT; KRAS WT GNE IC50, nucleotide exchange
  IC50: 16.5 nM
KRAS-G12D; KRAS G12D GNE IC50, nucleotide exchange
  IC50: 4.41 nM
KRAS-G12V; KRAS G12V GNE IC50, nucleotide exchange
  IC50: 11.1 nM
AsPC-1 cells; ASPC1, 2 hours compound incubation
  IC50: 126 nM

## C[C@@]1(O)COCCN(c2nc(OC[C@]3(CN4C[C@H]5C[C@@H]4CO5)CC3(F)F)nc3sc4c(-c5c(C6(F)CC6)c(Cl)cc6[nH]ncc56)nccc4c23)C1 [Ex-257, (6S)-4-(2-(((R)-1-(((1R,4R)-2-oxa-5-azabicyclo[2.2.1]heptan-5-yl)methyl)-2,2-difluorocyclopropyl)methoxy)-8-(6-chloro-5-(1-fluorocyclopropyl)-1H-indazol-4-yl)pyrido[4′,3′:4,5]thieno[2,3-d]pyrimidin-4-yl)-6-methyl-1,4-oxazepan-6-ol]
KRAS-WT; [1]
  IC50: 42.5 nM
KRAS-G12D; [2]
  IC50: 4.42 nM
KRAS-G12V; [3]
  IC50: 28.7 nM
AsPC-1 cells; [4]
  IC50: 144 nM
